For experiment [1], the target named is T1, D(1A) dopamine receptor (Homo sapiens, UniProt P21728).
The target in experiment [2] is T2, Alpha-1A adrenergic receptor (Homo sapiens, UniProt P35348).
T2 sequence (P35348 whole entry): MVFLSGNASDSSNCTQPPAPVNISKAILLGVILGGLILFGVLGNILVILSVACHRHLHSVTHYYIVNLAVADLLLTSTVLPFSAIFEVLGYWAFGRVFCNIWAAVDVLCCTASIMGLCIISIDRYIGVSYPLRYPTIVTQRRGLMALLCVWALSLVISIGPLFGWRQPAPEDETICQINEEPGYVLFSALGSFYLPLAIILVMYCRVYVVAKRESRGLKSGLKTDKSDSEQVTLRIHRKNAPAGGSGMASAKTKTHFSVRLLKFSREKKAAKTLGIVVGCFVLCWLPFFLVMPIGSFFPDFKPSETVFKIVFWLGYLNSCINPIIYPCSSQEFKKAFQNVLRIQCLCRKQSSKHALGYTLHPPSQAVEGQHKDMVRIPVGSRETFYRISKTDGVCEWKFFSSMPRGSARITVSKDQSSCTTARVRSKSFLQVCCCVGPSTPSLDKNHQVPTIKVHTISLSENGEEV

The target in experiment [3] is T1, D(1A) dopamine receptor. This is another data set of the same source.
Experiment [4] has as its target T3, Muscarinic acetylcholine receptor M2 (Homo sapiens, UniProt P08172).
T3 sequence (P08172 whole entry): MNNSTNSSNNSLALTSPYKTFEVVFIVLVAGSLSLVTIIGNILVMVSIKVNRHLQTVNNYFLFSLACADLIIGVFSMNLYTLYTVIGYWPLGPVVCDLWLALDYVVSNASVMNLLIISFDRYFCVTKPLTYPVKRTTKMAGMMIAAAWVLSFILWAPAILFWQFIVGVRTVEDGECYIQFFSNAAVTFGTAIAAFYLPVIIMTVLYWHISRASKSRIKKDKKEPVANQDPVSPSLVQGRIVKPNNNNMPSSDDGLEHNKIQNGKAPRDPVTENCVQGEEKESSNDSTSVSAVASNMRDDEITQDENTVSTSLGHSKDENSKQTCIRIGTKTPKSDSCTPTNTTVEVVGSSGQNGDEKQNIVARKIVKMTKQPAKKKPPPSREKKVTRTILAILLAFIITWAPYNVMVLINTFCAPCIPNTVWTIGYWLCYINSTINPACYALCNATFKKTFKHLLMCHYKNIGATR

For another experiment, the target named is T4, D(4) dopamine receptor (Homo sapiens, UniProt P21917).
T4 sequence (P21917 whole entry): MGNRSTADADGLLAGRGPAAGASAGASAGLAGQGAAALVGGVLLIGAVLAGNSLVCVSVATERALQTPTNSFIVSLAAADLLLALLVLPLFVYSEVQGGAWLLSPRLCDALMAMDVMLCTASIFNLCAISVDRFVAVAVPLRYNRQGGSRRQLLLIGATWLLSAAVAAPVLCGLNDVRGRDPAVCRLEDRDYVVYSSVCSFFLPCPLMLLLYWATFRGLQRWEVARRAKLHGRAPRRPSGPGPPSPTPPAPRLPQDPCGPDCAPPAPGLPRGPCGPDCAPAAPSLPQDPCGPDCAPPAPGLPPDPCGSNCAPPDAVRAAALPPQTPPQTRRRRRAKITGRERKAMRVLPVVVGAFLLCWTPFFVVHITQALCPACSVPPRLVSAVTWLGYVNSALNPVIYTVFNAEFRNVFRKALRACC

In experiment [5] the target is T5, Corticotropin-releasing factor receptor 2 (Homo sapiens, UniProt Q13324).
T5 sequence (Q13324 whole entry): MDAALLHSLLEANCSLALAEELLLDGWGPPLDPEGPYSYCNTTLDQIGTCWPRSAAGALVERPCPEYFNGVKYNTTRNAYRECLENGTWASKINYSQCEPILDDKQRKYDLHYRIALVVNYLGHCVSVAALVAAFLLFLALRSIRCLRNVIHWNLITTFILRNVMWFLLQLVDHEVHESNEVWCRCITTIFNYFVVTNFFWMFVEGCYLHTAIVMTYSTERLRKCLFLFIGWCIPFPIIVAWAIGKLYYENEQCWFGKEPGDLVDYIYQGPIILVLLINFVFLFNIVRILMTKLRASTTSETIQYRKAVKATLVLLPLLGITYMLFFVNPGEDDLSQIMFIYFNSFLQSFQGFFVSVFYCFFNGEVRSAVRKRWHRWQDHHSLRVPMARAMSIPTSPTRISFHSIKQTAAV

A further experiment has as its target T6, B1 bradykinin receptor (Homo sapiens, UniProt P46663).
T6 sequence (P46663 whole entry): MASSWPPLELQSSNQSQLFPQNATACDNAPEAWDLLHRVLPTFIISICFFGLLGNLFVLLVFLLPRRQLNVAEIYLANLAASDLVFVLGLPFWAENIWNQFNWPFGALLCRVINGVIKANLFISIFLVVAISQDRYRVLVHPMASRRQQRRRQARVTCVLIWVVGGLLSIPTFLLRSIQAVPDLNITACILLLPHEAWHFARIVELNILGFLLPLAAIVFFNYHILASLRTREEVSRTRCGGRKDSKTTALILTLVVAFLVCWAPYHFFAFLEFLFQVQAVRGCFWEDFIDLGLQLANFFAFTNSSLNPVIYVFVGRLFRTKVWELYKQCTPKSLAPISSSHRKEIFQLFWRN

Experiment [6] has as its target T7, Gastric inhibitory polypeptide receptor (Homo sapiens, UniProt P48546).
T7 sequence (P48546 whole entry): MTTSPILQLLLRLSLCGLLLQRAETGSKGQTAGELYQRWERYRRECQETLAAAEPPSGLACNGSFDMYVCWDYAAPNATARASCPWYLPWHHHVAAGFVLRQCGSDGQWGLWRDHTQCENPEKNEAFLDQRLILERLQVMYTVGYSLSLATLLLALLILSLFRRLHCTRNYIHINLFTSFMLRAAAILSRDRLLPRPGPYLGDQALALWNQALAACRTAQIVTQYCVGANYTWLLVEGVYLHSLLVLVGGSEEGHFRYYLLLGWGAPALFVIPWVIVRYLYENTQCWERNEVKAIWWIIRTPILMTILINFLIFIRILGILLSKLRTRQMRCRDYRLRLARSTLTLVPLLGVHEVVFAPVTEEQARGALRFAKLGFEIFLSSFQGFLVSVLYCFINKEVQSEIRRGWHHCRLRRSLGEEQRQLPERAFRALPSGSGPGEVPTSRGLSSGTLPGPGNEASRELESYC

The target of experiment [7] is Neurotensin receptor type 1 (Homo sapiens, UniProt P30989).
Neurotensin receptor type 1, sequence (P30989 whole entry): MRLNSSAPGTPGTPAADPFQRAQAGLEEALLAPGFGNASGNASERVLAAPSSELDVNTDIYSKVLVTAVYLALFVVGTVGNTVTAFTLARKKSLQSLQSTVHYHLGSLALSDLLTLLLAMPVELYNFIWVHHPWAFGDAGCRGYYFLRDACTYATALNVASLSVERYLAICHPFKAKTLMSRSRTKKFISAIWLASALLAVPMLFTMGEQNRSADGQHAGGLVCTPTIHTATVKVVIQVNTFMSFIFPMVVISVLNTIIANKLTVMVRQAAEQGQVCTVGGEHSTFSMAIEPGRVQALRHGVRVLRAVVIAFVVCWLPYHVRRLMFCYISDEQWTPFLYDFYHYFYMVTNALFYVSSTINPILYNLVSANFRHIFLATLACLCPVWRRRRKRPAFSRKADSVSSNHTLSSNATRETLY
A further experiment has as its target Histamine H2 receptor (Homo sapiens, UniProt P25021).
For another experiment, the target named is Substance-P receptor (Homo sapiens, UniProt P25103).
Substance-P receptor, sequence (P25103 whole entry): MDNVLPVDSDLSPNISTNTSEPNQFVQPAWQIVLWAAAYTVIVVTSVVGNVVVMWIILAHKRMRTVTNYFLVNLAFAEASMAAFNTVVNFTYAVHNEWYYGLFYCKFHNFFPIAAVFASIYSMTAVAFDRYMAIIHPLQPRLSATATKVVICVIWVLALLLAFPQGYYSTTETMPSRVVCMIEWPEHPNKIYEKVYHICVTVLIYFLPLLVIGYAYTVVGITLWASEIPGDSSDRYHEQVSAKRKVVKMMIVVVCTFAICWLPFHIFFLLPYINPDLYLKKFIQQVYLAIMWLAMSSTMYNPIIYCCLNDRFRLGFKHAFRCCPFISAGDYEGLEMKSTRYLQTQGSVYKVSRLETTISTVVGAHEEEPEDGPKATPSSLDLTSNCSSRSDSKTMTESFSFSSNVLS
Experiment [8] concerns the target T2, Alpha-1A adrenergic receptor. The source holds these as a separate data set.

The structures appear in SMILES notation. A value given as a limit tells only on which side of the number the result lay.

As usually defined, the AC50 is the concentration at which the activity in the assay is half-maximal. A lower AC50 goes with activity at low concentration.
Further: assay procedure not described here.

T1 sequence (P21728 whole entry): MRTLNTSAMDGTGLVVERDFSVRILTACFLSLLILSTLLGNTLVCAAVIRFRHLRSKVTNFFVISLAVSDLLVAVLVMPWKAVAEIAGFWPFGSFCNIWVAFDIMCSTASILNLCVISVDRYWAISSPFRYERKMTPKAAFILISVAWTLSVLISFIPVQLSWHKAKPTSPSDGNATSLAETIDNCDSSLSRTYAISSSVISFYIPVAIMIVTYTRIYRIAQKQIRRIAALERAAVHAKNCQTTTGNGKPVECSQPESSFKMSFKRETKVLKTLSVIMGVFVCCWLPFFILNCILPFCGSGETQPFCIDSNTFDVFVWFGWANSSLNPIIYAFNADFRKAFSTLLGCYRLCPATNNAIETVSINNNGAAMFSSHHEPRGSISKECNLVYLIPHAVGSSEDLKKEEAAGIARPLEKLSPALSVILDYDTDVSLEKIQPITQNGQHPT
Histamine H2 receptor, sequence (P25021 whole entry): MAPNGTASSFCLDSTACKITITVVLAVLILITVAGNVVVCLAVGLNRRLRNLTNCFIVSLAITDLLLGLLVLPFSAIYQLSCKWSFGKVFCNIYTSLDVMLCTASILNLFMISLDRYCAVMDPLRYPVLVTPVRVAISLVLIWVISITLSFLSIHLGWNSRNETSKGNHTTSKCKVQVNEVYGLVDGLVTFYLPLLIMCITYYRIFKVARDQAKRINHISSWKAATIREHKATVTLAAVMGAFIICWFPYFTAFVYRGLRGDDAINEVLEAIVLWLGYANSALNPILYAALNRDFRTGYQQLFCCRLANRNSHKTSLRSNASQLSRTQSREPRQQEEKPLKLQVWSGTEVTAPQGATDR

`CCCCCCCC(=O)N[C@H](CN1CCCC1)[C@H](O)c1ccc2c(c1)OCCO2`: the AC50 (on D(1A) dopamine receptor [1]; in experiment [2]) was > 30 µM each time.
On to `C[C@]1(COc2ccc(N3CCC(Oc4ccc(OC(F)(F)F)cc4)CC3)cc2)Cn2cc([N+](=O)[O-])nc2O1`, for which the AC50 at D(1A) dopamine receptor [3] was > 10 µM; in [4] it was > 10 µM; at D(4) dopamine receptor, > 10 µM; in experiment [5], > 30 µM; on B1 bradykinin receptor, > 30 µM; in experiment [6], > 30 µM. The AC50 in [7] is > 30 µM; on Histamine H2 receptor, > 10 µM; at Substance-P receptor, > 10 µM; in experiment [8] it was > 10 µM.
Consider `CC(=O)OCC[N+](C)(C)C` [ACETYLCHOLINE], for which the AC50 at D(1A) dopamine receptor [3] is > 10 µM; on D(4) dopamine receptor it was > 10 µM; in experiment [5] it was > 30 µM; on B1 bradykinin receptor it was > 30 µM; in experiment [6], > 30 µM; in [7], > 30 µM. Further, the AC50 (on Histamine H2 receptor; at Substance-P receptor; in [8]) was > 10 µM throughout.
For the compound `O=C(Nc1nc(-c2cc(Cl)cs2)c(N2CCN(C3CCCCC3)CC2)s1)c1cnc(N2CCC(C(=O)O)CC2)c(Cl)c1` [AVATROMBOPAG], the AC50 on D(1A) dopamine receptor [1] is > 30 µM; on D(1A) dopamine receptor [3], > 10 µM; in experiment [4], > 10 µM; at D(4) dopamine receptor it was > 10 µM; at B1 bradykinin receptor, > 10 µM; in experiment [7], > 10 µM. The AC50 was > 10 µM at Histamine H2 receptor, > 10 µM on Substance-P receptor, > 10 µM in experiment [8] and > 30 µM in [2].
Take `C[C@H]1C[C@H]2[C@@H]3CCC4=CC(=O)C=C[C@]4(C)[C@@]3(Cl)[C@@H](O)C[C@]2(C)[C@@]1(O)C(=O)CO` [BECLOMETHASONE]: the AC50 was > 10 µM on D(1A) dopamine receptor [3]; > 10 µM in experiment [4]; > 10 µM at D(4) dopamine receptor; > 30 µM in experiment [5]; > 30 µM on B1 bradykinin receptor; > 30 µM in experiment [6]. Also, the AC50 in [7] is > 30 µM; at Histamine H2 receptor, > 10 µM; at Substance-P receptor, > 10 µM; in experiment [8], > 10 µM.
For `CO[C@@]1(NC(=O)CSCC#N)C(=O)N2C(C(=O)O)=C(CSc3nnnn3C)CS[C@@H]21` [CEFMETAZOLE], the AC50 (on D(1A) dopamine receptor [1]; in experiment [2]) was > 30 µM each time.
`Oc1c(I)cc(Cl)c2cccnc12` [CLIOQUINOL]: the AC50 (at D(1A) dopamine receptor [1]; in [2]) was > 30 µM each time.
With `COc1ccc2c(c1)[C@]13CCCC[C@@H]1[C@H](C2)N(C)CC3` [DEXTROMETHORPHAN], the AC50 at D(1A) dopamine receptor [3] was > 10 µM; in [4], > 10 µM; at D(4) dopamine receptor, > 10 µM; in [5] it was > 30 µM; on B1 bradykinin receptor, > 30 µM; in experiment [6], > 30 µM. Further, the AC50 in experiment [7] was > 30 µM; at Histamine H2 receptor it was > 10 µM; at Substance-P receptor, 6.94 µM; in experiment [8], 5.22 µM.
Consider `CCn1cc(C(=O)O)c(=O)c2cc(F)c(N3CCNCC3)nc21` [ENOXACIN], for which the concentration at half-maximal activity (AC50) was > 10 µM on D(1A) dopamine receptor [3]; > 10 µM in experiment [4]; > 10 µM on D(4) dopamine receptor; > 30 µM in experiment [5]; > 30 µM on B1 bradykinin receptor; > 30 µM in [6]. Also, the AC50 in experiment [7] is > 30 µM; on Histamine H2 receptor, > 10 µM; on Substance-P receptor it was > 10 µM; in [8] it was > 10 µM.
On to `CCC(=O)O[C@@H]1CC(=O)O[C@H](C)C/C=C/C=C/[C@H](OC(C)=O)[C@H](C)C[C@H](CC=O)[C@H](O[C@@H]2O[C@H](C)[C@@H](O[C@H]3C[C@@](C)(OC(C)=O)[C@@H](OC(=O)CC)[C@H](C)O3)[C@H](N(C)C)[C@H]2O)[C@H]1OC` [MIOCAMYCIN], for which the AC50 (at D(1A) dopamine receptor [1]; in [2]) was > 30 µM each time.
Take `C1CNCCN1` [PIPERAZINE]: the AC50 (at D(1A) dopamine receptor [1]; in experiment [2]) was > 30 µM each time.
For the compound `CNCCCC1c2ccccc2C=Cc2ccccc21` [PROTRIPTYLINE], the activity in experiment [4] was half-maximal at 0.653 µM (AC50).
As to `COCCCOc1ccnc(C[S+]([O-])c2nc3ccccc3[nH]2)c1C` (stereo not given) [RABEPRAZOLE], the AC50 at D(1A) dopamine receptor [3] was > 10 µM; in experiment [4], > 10 µM; at D(4) dopamine receptor, > 10 µM; in [5], > 30 µM; at B1 bradykinin receptor, > 30 µM; in experiment [6], > 30 µM. Also, the AC50 was > 30 µM in experiment [7], > 10 µM on Histamine H2 receptor, > 10 µM at Substance-P receptor and 4.98 µM in [8].

The values above are taken from ChEMBL document CHEMBL5291721, “A preclinical secondary pharmacology resource illuminates target-adverse drug reaction associations of marketed drugs” (Nat Commun, 2023).
